Test results reported in patent US4929601A, “Tripeptides useful as immunostimulants as well as in the prevention of metastases” (Ellem Industria Farmaceutica, S.p.A., priority 1987, dated 1990).

Legend:
[1] = test system: PHA-stimulated human T lymphocytes; experiment: RNA synthesis in PHA-stimulated human T lymphocytes in vitro (3H-uridine); type: cell-based; settings: for RNA synthesis, 3H-uridine c.p.m. (mean): control 3835
Protocol: Human T lymphocytes, incubated in vitro for 24 hours in presence of 0.5% phytohemagglutinin (PHA) and different concentrations of the tripeptides under examination, have been analyzed for RNA synthesis (cell activation) by means of 3H-uridine labelling.

[2] = test system: PHA-stimulated human T lymphocytes; experiment: DNA synthesis in PHA-stimulated human T lymphocytes in vitro (3H-thymidine); type: cell-based; settings: for DNA synthesis, 3H-thymidine c.p.m. (mean): control 22642
Protocol: Human T lymphocytes, incubated in vitro for 72 hours in presence of 0.5% PHA and different concentrations of the tripeptides under examination, have been analyzed for DNA synthesis (cell proliferation) by means of 3H-thymidine labelling.

For N=C(N)NCCC[C@H](N)C(=O)NCC(=O)N[C@H](CC(=O)O)C(=O)O [ARG--GLY--D--ASP, L-Arginyl-glycyl-D-Aspartic acid], the “PHA-induced human T lymphocyte activation (RNA synthesis)” value ([1]; 24 hours, 0.5% PHA) was “able to increase”, the “RNA synthesis Δ %” value ([1]; peptide 0.0001 mcg/ml) was -8% and the “RNA synthesis, 3H-uridine c.p.m. (mean)” value ([1]; peptide 0.0001 mcg/ml, 24 hours, 0.5% PHA) was 3517 c.p.m. For the same compound, the “RNA synthesis Δ %” value ([1]; peptide 0.001 mcg/ml) was “+8%”, the “RNA synthesis, 3H-uridine c.p.m. (mean)” value ([1]; peptide 0.001 mcg/ml, 24 hours, 0.5% PHA) was 4129 c.p.m and the “RNA synthesis Δ %” value ([1]; peptide 0.01 mcg/ml) was “+12%”. For the same compound, the “RNA synthesis, 3H-uridine c.p.m. (mean)” value ([1]; peptide 0.01 mcg/ml, 24 hours, 0.5% PHA) was 4283 c.p.m, the “RNA synthesis Δ %” value ([1]; peptide 0.1 mcg/ml) was “+25%” and the “RNA synthesis, 3H-uridine c.p.m. (mean)” value ([1]; peptide 0.1 mcg/ml, 24 hours, 0.5% PHA) was 4777 c.p.m. For the same compound, the “RNA synthesis Δ %” value ([1]; peptide 1 mcg/ml) was “+22%”, the “RNA synthesis, 3H-uridine c.p.m. (mean)” value ([1]; peptide 1 mcg/ml, 24 hours, 0.5% PHA) was 4682 c.p.m and the “RNA synthesis Δ %” value ([1]; peptide 10 mcg/ml) was “+13%”. The “RNA synthesis, 3H-uridine c.p.m. (mean)” value ([1]; peptide 10 mcg/ml, 24 hours, 0.5% PHA) was 4346 c.p.m, the “PHA-induced human T lymphocyte proliferation (DNA synthesis)” value ([2]; 72 hours, 0.5% PHA) was “able to increase” and the “DNA synthesis Δ %” value ([2]; peptide 0.0001 mcg/ml) was -3%. For the same compound, the “DNA synthesis, 3H-thymidine c.p.m. (mean)” value ([2]; peptide 0.0001 mcg/ml, 72 hours, 0.5% PHA) was 21898 c.p.m, the “DNA synthesis Δ %” value ([2]; peptide 0.001 mcg/ml) was “+2%” and the “DNA synthesis, 3H-thymidine c.p.m. (mean)” value ([2]; peptide 0.001 mcg/ml, 72 hours, 0.5% PHA) was 23029 c.p.m. For the same compound, the “DNA synthesis Δ %” value ([2]; peptide 0.01 mcg/ml) was “+8%”, the “DNA synthesis, 3H-thymidine c.p.m. (mean)” value ([2]; peptide 0.01 mcg/ml, 72 hours, 0.5% PHA) was 24551 c.p.m and the “DNA synthesis Δ %” value ([2]; peptide 0.1 mcg/ml) was “+15%”. The “DNA synthesis, 3H-thymidine c.p.m. (mean)” value ([2]; peptide 0.1 mcg/ml, 72 hours, 0.5% PHA) was 26090 c.p.m, the “DNA synthesis Δ %” value ([2]; peptide 1 mcg/ml) was “+16%” and the “DNA synthesis, 3H-thymidine c.p.m. (mean)” value ([2]; peptide 1 mcg/ml, 72 hours, 0.5% PHA) was 26170 c.p.m. The “DNA synthesis Δ %” value ([2]; peptide 10 mcg/ml) was “+9%” and the “DNA synthesis, 3H-thymidine c.p.m. (mean)” value ([2]; peptide 10 mcg/ml, 72 hours, 0.5% PHA) was 24570 c.p.m.
